For the assay, the target named is T1, Protein O-GlcNAcase (Homo sapiens, UniProt O60502).
T1 sequence (O60502 whole entry): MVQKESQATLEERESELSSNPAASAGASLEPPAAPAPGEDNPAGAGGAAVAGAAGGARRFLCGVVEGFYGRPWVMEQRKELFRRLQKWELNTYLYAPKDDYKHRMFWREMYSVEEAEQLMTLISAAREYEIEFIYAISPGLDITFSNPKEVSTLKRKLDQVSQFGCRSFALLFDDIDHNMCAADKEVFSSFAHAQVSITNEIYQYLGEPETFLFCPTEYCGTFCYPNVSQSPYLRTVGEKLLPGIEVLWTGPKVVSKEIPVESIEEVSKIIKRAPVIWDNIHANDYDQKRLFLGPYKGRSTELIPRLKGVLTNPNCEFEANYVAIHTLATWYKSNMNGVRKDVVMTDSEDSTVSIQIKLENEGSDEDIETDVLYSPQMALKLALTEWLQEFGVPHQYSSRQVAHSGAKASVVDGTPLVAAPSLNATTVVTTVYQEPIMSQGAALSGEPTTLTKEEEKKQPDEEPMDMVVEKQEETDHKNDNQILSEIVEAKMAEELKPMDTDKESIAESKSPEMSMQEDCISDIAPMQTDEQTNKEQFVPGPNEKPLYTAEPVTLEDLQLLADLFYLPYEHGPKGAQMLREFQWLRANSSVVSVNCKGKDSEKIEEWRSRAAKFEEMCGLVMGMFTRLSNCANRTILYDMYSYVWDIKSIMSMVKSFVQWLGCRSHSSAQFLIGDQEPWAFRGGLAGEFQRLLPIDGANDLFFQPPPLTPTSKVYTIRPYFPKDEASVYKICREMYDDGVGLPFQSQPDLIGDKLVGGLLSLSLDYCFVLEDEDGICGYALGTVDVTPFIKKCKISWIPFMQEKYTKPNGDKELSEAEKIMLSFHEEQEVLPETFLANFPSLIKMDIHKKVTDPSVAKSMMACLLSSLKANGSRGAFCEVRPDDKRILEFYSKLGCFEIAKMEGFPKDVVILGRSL
As to the kind of experiment: Enzyme Inhibition Biochemical Assay. The protocol:
Recombinant full length human OGA enzyme was purchased from Origene. 4-MUGlcNAc substrate was purchased from Sigma. All other reagents were purchased from Sigma or Fisher. Assay buffer consists of the McIlvaine buffer system, pH 6.4 (0.2M Na2HPO4 mixed with 0.1M citric acid) and 0.01% BSA. […] Reactions were incubated for 90 minutes at room temperature and quenched with 40 μl of 3M glycine, pH 10 and read on a Perkin Elmer Envision plate reader (Ex: 355 nm/Em: 460 nm). Compounds were tested with a 10-point dose-response starting from 20 μM with a 4-fold dilution. Data was fit using GraphPad Prism using a 4-parameter fit with variable slope.

The IC50 is the midpoint of a concentration-inhibition curve. Lower therefore signals inhibition by little substance. As to `CC(=O)Nc1ncc(CN2C[C@H](Oc3cc(=O)n(C)cn3)C[C@@H]2C)s1` [US20240308995, Example 1-70], the IC50 was below 1 nM.
